Data reported in PubChem BioAssay AID330 (DTP/NCI, 2004).
Values joined by “and” are separate entries in the source; they are usually repeats but may differ in a detail not shown here. Equal entries are not always repeated. Toxic doses and inconclusive results are not listed. How the source made its calls: active means survival T/C of 150% or more; inactive means T/C below 125% in these data.

Tested on: P388 leukemia ip, CD2F1 mice, survival T/C
Test: NCI In Vivo Anticancer Drug Screen. Data for tumor model P388 Leukemia (intraperitoneal) in CD2F1 (CDF1) mice
Details: endpoint: median survival time, higher = longer survival
Summary of the method: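 Mice carrying the transplanted tumor received test compound or vehicle. Survival was recorded in each group, and the value is the treated-group measurement divided by that of the vehicle-treated control group.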

[1] = dose: 12.5 mg/kg/injection, schedule: Q01DX009 (ip), vehicle: saline with Tween-80

Measured: T/C

CCCC(=O)Nc1nc2ccc([N+](=O)[O-])cc2s1
inactive: [1] 106 % of control | dose: 12.5 mg/kg/injection, schedule: Q01DX009 (ip), vehicle: saline 97 % of control | dose: 25.0 mg/kg/injection, schedule: Q01DX009 (ip), vehicle: saline with Tween-80 97 % of control | dose: 25.0 mg/kg/injection, schedule: Q01DX009 (ip), vehicle: saline 98 % of control | dose: 50.0 mg/kg/injection, schedule: Q01DX009 (ip), vehicle: saline with Tween-80 99 % of control and 123 % of control | dose: 50.0 mg/kg/injection, schedule: Q01DX009 (ip), vehicle: saline 98 % of control | dose: 100.0 mg/kg/injection, schedule: Q01DX009 (ip), vehicle: saline with Tween-80 110 % of control and 96 % of control | dose: 100.0 mg/kg/injection, schedule: Q01DX009 (ip), vehicle: saline 101 % of control | dose: 200.0 mg/kg/injection, schedule: Q01DX009 (ip), vehicle: saline with Tween-80 108 % of control

Cc1n(-c2ccccc2)nn[n+]1C
inactive: dose: 12.5 mg/kg/injection, schedule: Q01DX009 (ip), vehicle: Klucel (hydroxypropylcellulose) (HPC) 116 % of control and 92 % of control | dose: 25.0 mg/kg/injection, schedule: Q01DX009 (ip), vehicle: Klucel (hydroxypropylcellulose) (HPC) 101 % of control | dose: 50.0 mg/kg/injection, schedule: Q01DX009 (ip), vehicle: Klucel (hydroxypropylcellulose) (HPC) 103 % of control and 91 % of control

COc1ccc([N+](=O)[O-])c(OC(C)=O)c1OC
inactive: dose: 12.5 mg/kg/injection, schedule: Q01DX009 (ip), vehicle: other 104 % of control | dose: 50.0 mg/kg/injection, schedule: Q01DX009 (ip), vehicle: other 93 % of control | dose: 100.0 mg/kg/injection, schedule: Q01DX009 (ip), vehicle: other 89 % of control | dose: 200.0 mg/kg/injection, schedule: Q01DX009 (ip), vehicle: other 89 % of control

CN=C(NC)c1ccc(NC(=O)c2ccc(C(=O)Nc3ccc(C(=NC)NC)c(C)c3)cc2)cc1C
active: dose: 25.0 mg/kg/injection, schedule: Q01DX005 (ip), vehicle: saline with Tween-80 164 % of control and 173 % of control
inactive: dose: 6.25 mg/kg/injection, schedule: Q01DX005 (ip), vehicle: saline with Tween-80 111 % of control and 118 % of control | dose: 12.5 mg/kg/injection, schedule: Q01DX005 (ip), vehicle: saline with Tween-80 119 % of control

CCOP(=O)(O)OCc1ccccc1.[Ti]
inactive: dose: 50.0 mg/kg/injection, schedule: Q01DX001 (ip), vehicle: Klucel (hydroxypropylcellulose) (HPC) 90 % of control | dose: 100.0 mg/kg/injection, schedule: Q01DX001 (ip), vehicle: Klucel (hydroxypropylcellulose) (HPC) 97 % of control | dose: 200.0 mg/kg/injection, schedule: Q01DX001 (ip), vehicle: Klucel (hydroxypropylcellulose) (HPC) 93 % of control

O=C1NC(=O)C2C(=O)NC(=O)C1C21CCc2ccccc21 (stereo not drawn)
inactive: dose: 60.0 mg/kg/injection, schedule: Q01DX005 (ip), vehicle: saline with Tween-80 97 % of control | dose: 120.0 mg/kg/injection, schedule: Q01DX005 (ip), vehicle: saline with Tween-80 86 % of control

Cc1ncc(O)c(C(=O)O)c1C(=O)O
inactive: dose: 17.5 mg/kg/injection, schedule: Q01DX005 (ip), vehicle: Klucel (hydroxypropylcellulose) (HPC) 100 % of control | dose: 35.0 mg/kg/injection, schedule: Q01DX005 (ip), vehicle: Klucel (hydroxypropylcellulose) (HPC) 103 % of control | dose: 70.0 mg/kg/injection, schedule: Q01DX005 (ip), vehicle: Klucel (hydroxypropylcellulose) (HPC) 100 % of control

Cc1ccc(S(=O)(=O)OCC2CCCC2COS(=O)(=O)c2ccc(C)cc2)cc1 (stereo not drawn)
inactive: dose: 100.0 mg/kg/injection, schedule: Q01DX009 (ip), vehicle: Klucel (hydroxypropylcellulose) (HPC) 100 % of control | dose: 200.0 mg/kg/injection, schedule: Q01DX009 (ip), vehicle: Klucel (hydroxypropylcellulose) (HPC) 106 % of control | dose: 400.0 mg/kg/injection, schedule: Q01DX009 (ip), vehicle: Klucel (hydroxypropylcellulose) (HPC) 105 % of control

Cc1c2c(C(N)=O)nccc2c(C)c2c1c1ccccc1n2Cc1ccccc1
inactive: dose: 1.56 mg/kg/injection, schedule: Q04DX003 (ip), vehicle: distilled water + Tween-80 89 % of control | dose: 3.13 mg/kg/injection, schedule: Q04DX003 (ip), vehicle: distilled water + Tween-80 89 % of control | dose: 12.5 mg/kg/injection, schedule: Q04DX003 (ip), vehicle: distilled water + Tween-80 86 % of control | dose: 25.0 mg/kg/injection, schedule: Q04DX003 (ip), vehicle: distilled water + Tween-80 87 % of control | dose: 50.0 mg/kg/injection, schedule: Q04DX003 (ip), vehicle: distilled water + Tween-80 100 % of control | dose: 100.0 mg/kg/injection, schedule: Q04DX003 (ip), vehicle: distilled water + Tween-80 95 % of control | dose: 200.0 mg/kg/injection, schedule: Q04DX003 (ip), vehicle: distilled water + Tween-80 101 % of control

CC1(C)N=C(N)N=C(N)N1c1cccc(CCCCOc2ccccc2)c1
inactive: dose: 6.25 mg/kg/injection, schedule: Q04DX003 (ip), vehicle: saline with Tween-80 113 % of control | dose: 12.5 mg/kg/injection, schedule: Q04DX003 (ip), vehicle: saline with Tween-80 109 % of control | dose: 18.0 mg/kg/injection, schedule: Q01DX009 (ip), vehicle: saline with Tween-80 95 % of control
active: dose: 3.13 mg/kg/injection, schedule: Q01DX009 (ip), vehicle: saline with Tween-80 150 % of control | dose: 6.25 mg/kg/injection, schedule: Q01DX009 (ip), vehicle: saline with Tween-80 150 % of control | [1] 154 % of control
